# According to patent publication US6572788B2, “Amine oxide wood preservatives” (Lonza, Inc., priority 2000, dated 2003):
# Several values for one entry are separate records, joined by “and”; a condition that tells them apart may be missing. Identical values can stand only once. Like-named read-outs stand apart in the source and are kept apart here.
# How the values were obtained:
# [1] = test system: C. globosum (soft rot decay fungi); assay: Agar dilution plate method, wood rot fungi; assay type: cell-based; settings: for MIC: Chaetomium globosum, read-out: MIC (ppm of amine oxides)
# Protocol: (§1) The efficacy of the aqueous amine oxide solutions in Table 14 at various concentrations against the wood rot fungi T. versicolor (white rot fungi), G. trabeum (brown rot fungi), P. placenta (brown rot fungi), and C. globosum (soft rot decay fungi) were determined using the agar dilution plate method well known in the art. […] The percent retardation of the fungi was determined by the percentage change in the diameter of the fungi on the agar plate (i.e. Percent Retardation=((Diameter of Control)−(Diameter of Treated Fungi))/(Diameter of Control)*100%).
# [2] = test system: G. trabeum (brown rot fungi); assay: Agar dilution plate method, wood rot fungi; assay type: cell-based; settings: for MIC: Gloeophyllum trabeum, read-out: MIC (ppm of amine oxides)
# Protocol: as §1
# [3] = test system: T. versicolor (white rot fungi); assay: Agar dilution plate method, wood rot fungi; assay type: cell-based; settings: for MIC: Trametes versicolor, read-out: MIC (ppm of amine oxides)
# Protocol: as §1
# [4] = test system: P. placenta (brown rot fungi); assay: Agar dilution plate method, wood rot fungi; assay type: cell-based; settings: for MIC: read-out: MIC (ppm of amine oxides)
# Protocol: as §1
# [5] = test system: Chaetomium globsum (C. globsum), a soft rot fungus; assay: Agar plate method, fungus growth inhibition; assay type: cell-based
# Protocol: (§2) The efficacy of aqueous solutions of amine oxides and didecyldimethyl ammonium chloride to inhibit fungus growth was evaluated by the agar plate method known in the art. […] The fungi tested were Trametes versicolor (T. versicolor), a white rot fungus; Gloeophyllum trabeum (G. trabeum), a brown rot fungus which is tolerant of arsenic and phenolic type wood preservatives; Poria placenta (P. placenta), a brown rot fungus which is tolerant to copper in wood preservatives; Lentinus lepideus (L. lepideus), a brown rot fungus which is tolerant to creosote; Coniophora puteana (C. puteana), a brown rot fungus; and Chaetomium globsum (C. globsum), a soft rot fungus.
# [6] = test system: Poria placenta (P. placenta), a brown rot fungus; assay: Agar plate method, fungus growth inhibition; assay type: cell-based
# Protocol: as §2
# [7] = test system: Gloeophyllum trabeum (G. trabeum), a brown rot fungus; assay: Agar plate method, fungus growth inhibition; assay type: cell-based
# Protocol: as §2
# [8] = test system: Trametes versicolor (T. versicolor), a white rot fungus; assay: Agar plate method, fungus growth inhibition; assay type: cell-based; settings: 50% retardation of growth
# Protocol: as §2
# stains, molds, and fungi [9] = assay: Wood preserving efficacy on freshly cut white birch wood (dip treatment, sealed bag); design: key: 4 - Clean with no visible stain or mold; 3 - Trace amount of white/black fungal growth; 2 - Black and/or white fungal growth visible on all faces and ends; 1 - Heavy fungal growth
# Protocol: The wood preserving efficacy of each aqueous test solution in Table 1 below was tested on freshly cut white birch wood as follows. All percentages in Table 1 are by weight. A branch of white birch tree measuring about 3 inches in diameter was cut into pieces about 6 inch in length. Each piece was then split into 4 sections. Each section was dipped into the test solution for about 1 minute and blotted with a paper towel to remove excess liquid. The sections were sealed in a clear plastic bag and stored at ambient conditions. The sections were observed after 1, 3, 7, and 12 weeks for the growth of stains, molds, and fungi. The aqueous test solutions were prepared by mixing the active ingredient with water.
# stains, molds, and fungi [10] = assay: Wood preserving efficacy on freshly cut tulip wood (dip treatment); further: key: 4 - Clean with no visible stain or mold; 3 - Trace amount of white/black fungal growth; 2 - Black and/or white fungal growth visible on all faces and ends; 1 - Heavy fungal growth
# Protocol: The wood preserving efficacy of each aqueous test solution in Table 17 below was tested on freshly cut tulip wood (also known as Tulip-Popular, Yellow Popular, and Liriodendron tulipfera L.) as follows. All percentages in Table 17 are by weight. Pieces of tulip wood cut from a 4″ debarked branch were cut into pieces. Each piece was then split into 4 sections. Each section was dipped into the test solution for about 1 minute and blotted with a paper towel to remove excess liquid. The sections were sealed in a clear plastic bag and stored at ambient conditions. The sections were observed after 1, 3, 7, and 11 weeks for the growth of stains, molds, and fungi. The aqueous test solutions were prepared by mixing the active ingredient with water.
# stains, molds, and fungi [11] = assay: Wood preserving efficacy on freshly cut green chestnut oak (dip treatment); design: scale not given here
# stains, molds, and fungi [12] = assay: Wood preserving efficacy on freshly cut beech wood (dip treatment); settings: beech wood pieces (Example 15); further: key: 4 - Clean with no visible stain or mold; 3 - Trace amount of white/black fungal growth; 2 - Black and/or white fungal growth visible on all faces and ends; 1 - Heavy fungal growth
# Protocol: The wood preserving efficacy of each aqueous test solution in Table 18 below was tested on freshly cut beech wood (Fagus grandifolia Ehrh.) as follows. All percentages in Table 18 are by weight. A 1″ branch of a beech tree was split into two pieces. The bark was left on the pieces. Each piece was dipped into the test solution for about 1 minute and blotted with a paper towel to remove excess liquid. […] The aqueous test solutions were prepared by mixing the active ingredient with water.
# [13] = C. globosum, 100% growth retardation, Table 14
# [14] = G. trabeum, 100% growth retardation, Table 14
# [15] = T. versicolor, 100% growth retardation, Table 14
# [16] = P. placenta, 100% growth retardation, Table 14
# [17] = 3 weeks, listed as 0.5% Dodecyl DMAO
# [18] = 3 weeks, listed as 1.0% Dodecyl DMAO
# [19] = 7 weeks, listed as 0.5% Dodecyl DMAO
# [20] = 7 weeks, listed as 1.0% Dodecyl DMAO
# [21] = 11 weeks, listed as 0.5% Dodecyl DMAO
# [22] = 11 weeks, listed as 1.0% Dodecyl DMAO
molecule,measurement,setting,value
CCCCCCCCCCCC[N+](C)([O-])Cc1ccccc1 (centres unmarked) [Dodecyl-BMAO],MIC (ppm of amine oxides),[1]; [13],>1000 ppm
same,MIC (ppm of amine oxides),[2]; [14],1000 ppm
same,MIC (ppm of amine oxides),[3]; [15],>1000 ppm
same,MIC (ppm of amine oxides),[4]; [16],>1000 ppm
CCCCCCCC[N+](C)(C)[O-] [Octyldimethylamine oxide],MIC,[1]; [13],> 1000 µg/mL
same,MIC,[2]; [14],1000 µg/mL
same,MIC,[3]; [15],750 µg/mL
same,MIC,[4]; [16],1000 µg/mL
same,IC50,[5],400 ppm
same,IC50,[6],300 ppm
same,IC50,[7],250-400 ppm
same,IC50,[8],800 ppm
"CCCCCCCCCCCC[N+]1([O-])CCOCC1 [Lauryl morpholine N-oxide, lauryl morpholine N-oxide]",MIC (ppm of amine oxides),[1]; [13],>1000 ppm
same,MIC (ppm of amine oxides),[2]; [14],1000 ppm
same,MIC (ppm of amine oxides),[3]; [15],750 ppm
same,MIC (ppm of amine oxides),[4]; [16],500 ppm
CCCCCCCCCC[N+](C)(C)[O-] [Decyldimethylamine oxide],Rating of treated white birch sections vs. Time,"stains, molds, and fungi [9]; 1 week",3
same,Rating of treated white birch sections vs. Time,"stains, molds, and fungi [9]; 3 weeks",2
same,Rating of treated white birch sections vs. Time,"stains, molds, and fungi [9]; 7 weeks",2
same,Rating of treated white birch sections vs. Time,"stains, molds, and fungi [9]; 12 weeks",2
same,MIC,[1]; [13],> 1000 µg/mL
same,MIC,[2]; [14],250 µg/mL
same,MIC,[3]; [15],750 µg/mL
same,MIC,[4]; [16],500 µg/mL
same,IC50,[5],50-100 ppm
same,IC50,[6],15-25 ppm
same,IC50,[7],20-40 ppm
same,IC50,[8],300-500 ppm
CCCCCCCCCCCCCCCCCC[N+](C)(C)[O-] [Octadecyl dimethylamine oxide],MIC,[1]; [13],> 1000 µg/mL
same,MIC,[2]; [14],> 1000 µg/mL
same,MIC,[3]; [15],> 1000 µg/mL
same,MIC,[4]; [16],> 1000 µg/mL
same,IC50,[5],600 ppm
same,IC50,[6],20-50 ppm
same,IC50,[7],250 ppm
same,IC50,[8],800 ppm
Coco-di(hydroxyethyl)amine oxide,MIC (ppm of amine oxides),[1]; [13],>1000 ppm
same,MIC (ppm of amine oxides),[2]; [14],500 ppm
same,MIC (ppm of amine oxides),[3]; [15],500 ppm
same,MIC (ppm of amine oxides),[4]; [16],500 ppm
"CCCCCCCCCCCC[N+](C)(C)[O-] [Dodecyl dimethylamine oxide, dodecyl dimethylamine oxide]",Rating of treated tulip sections vs. Time,"stains, molds, and fungi [10]; 1 week",4
same,Rating of treated tulip sections vs. Time,"stains, molds, and fungi [10]; [17]",3
same,Rating of treated tulip sections vs. Time,"stains, molds, and fungi [10]; [18]",4
same,Rating of treated tulip sections vs. Time,"stains, molds, and fungi [10]; [19]",2
same,Rating of treated tulip sections vs. Time,"stains, molds, and fungi [10]; [20]",4 and 3
same,Rating of treated tulip sections vs. Time,"stains, molds, and fungi [10]; [21]",1
same,Rating of treated tulip sections vs. Time,"stains, molds, and fungi [10]; [22]",4
same,MIC,[1],> 1000 µg/mL
same,MIC,[2],250 µg/mL
same,MIC,[3],250 µg/mL
same,MIC,[4],250 µg/mL
same,Rating of treated green chestnut oak sections vs. Time,"stains, molds, and fungi [11]; 2 weeks",3
same,Rating of treated green chestnut oak sections vs. Time,"stains, molds, and fungi [11]; 4 weeks",2
same,Rating of treated green chestnut oak sections vs. Time,"stains, molds, and fungi [11]; 5 weeks",2
same,Rating of treated green chestnut oak sections vs. Time,"stains, molds, and fungi [11]; 9 weeks",1
same,Rating of treated tulip sections vs. Time,"stains, molds, and fungi [12]; 1 week, listed as 0.5% Dodecyl DMAO",4
same,Rating of treated tulip sections vs. Time,"stains, molds, and fungi [12]; 1 week, listed as 1.0% Dodecyl DMAO",4 and 3.5
same,Rating of treated tulip sections vs. Time,"stains, molds, and fungi [12]; [17]",4
same,Rating of treated tulip sections vs. Time,"stains, molds, and fungi [12]; [18]",2 and 3
same,Rating of treated tulip sections vs. Time,"stains, molds, and fungi [12]; [19]",2.5
same,Rating of treated tulip sections vs. Time,"stains, molds, and fungi [12]; [20]",2
same,Rating of treated tulip sections vs. Time,"stains, molds, and fungi [12]; [21]",2.5
same,Rating of treated tulip sections vs. Time,"stains, molds, and fungi [12]; [22]",2 and 1
Tallow di(hydroxyethyl)amine oxide,MIC (ppm of amine oxides),[1]; [13],>1000 ppm
same,MIC (ppm of amine oxides),[2]; [14],>1000 ppm
same,MIC (ppm of amine oxides),[3]; [15],>1000 ppm
same,MIC (ppm of amine oxides),[4]; [16],>1000 ppm
CCCCCCCCCCCCCC[N+](C)(C)[O-] [Tetradecyl dimethylamine oxide],Rating of treated white birch sections vs. Time,"stains, molds, and fungi [9]; 1 week",4
same,Rating of treated white birch sections vs. Time,"stains, molds, and fungi [9]; 3 weeks",3
same,Rating of treated white birch sections vs. Time,"stains, molds, and fungi [9]; 7 weeks",2
same,Rating of treated white birch sections vs. Time,"stains, molds, and fungi [9]; 12 weeks",2
same,MIC,[1]; [13],> 1000 µg/mL
same,MIC,[2]; [14],> 1000 µg/mL
same,MIC,[3]; [15],> 1000 µg/mL
same,MIC,[4]; [16],> 1000 µg/mL
same,IC50,[5],80-100 ppm
same,IC50,[6],2-5 ppm
same,IC50,[7],15-25 ppm
same,IC50,[8],70 ppm
"CC(O)(P(=O)(O)O)P(=O)(O)O [1-Hydroxyethylidene-1,1-diphosphonic acid]",Rating of treated green chestnut oak sections vs. Time,"stains, molds, and fungi [11]; 2 weeks",2
same,Rating of treated green chestnut oak sections vs. Time,"stains, molds, and fungi [11]; 4 weeks",2
same,Rating of treated green chestnut oak sections vs. Time,"stains, molds, and fungi [11]; 5 weeks",1
same,Rating of treated green chestnut oak sections vs. Time,"stains, molds, and fungi [11]; 9 weeks",1
